Measured values from ChEMBL document CHEMBL1142387, “Synthetic homoserine lactone-derived sulfonylureas as inhibitors of Vibrio fischeri quorum sensing regulator” (Bioorg Med Chem, 2008).

biological target: T1, Transcriptional activator protein LuxR (Aliivibrio fischeri, UniProt P12746); test: Antagonist activity at LuxR in Vibrio fischeri assessed as inhibition of N-3-oxos-hexanoyl-L-homoserine lactone induced luminescence; format: functional
T1 sequence (P12746 whole entry): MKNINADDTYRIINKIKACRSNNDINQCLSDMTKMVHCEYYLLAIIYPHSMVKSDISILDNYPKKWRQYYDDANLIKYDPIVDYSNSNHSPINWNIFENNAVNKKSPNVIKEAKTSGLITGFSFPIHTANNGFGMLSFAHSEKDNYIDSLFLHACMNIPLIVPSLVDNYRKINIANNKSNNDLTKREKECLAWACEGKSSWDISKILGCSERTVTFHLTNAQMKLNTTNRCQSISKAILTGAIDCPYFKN

Row | IC50 [µM] | SMILES
1 | 3 | CCCCCS(=O)(=O)NC1CCOC1=O (stereo unspecified)
2 | 9.4 | O=C1OCCC1NS(=O)(=O)NCCCc1ccccc1 (stereo unspecified)
3 | 7.8 | CCCCCCCCCCNS(=O)(=O)NC1CCOC1=O (stereo unspecified)
4 | 3.6 | CCCCNS(=O)(=O)NC1CCOC1=O (stereo unspecified)
5 | 2 | CCCCCNS(=O)(=O)NC1CCOC1=O (stereo unspecified)
6 | 13 | O=C1OCCC1NS(=O)(=O)NCCc1ccccc1 (stereo unspecified)
7 | 6.4 | O=C1OCCC1NS(=O)(=O)NCc1ccccc1 (stereo unspecified)
8 | 13 | O=C1OCCC1NS(=O)(=O)NCCCCc1ccccc1 (stereo unspecified)
9 | 7.2 | CCCCCCCCNS(=O)(=O)NC1CCOC1=O (stereo unspecified)
10 | 5 | CCCCCCNS(=O)(=O)NC1CCOC1=O (stereo unspecified)

Row | SMILES | IC50 [µM]
11 | CCCCNC(=O)NC1CCOC1=O (stereo unspecified) | 5
